Measurements reported in PubChem BioAssay AID248 (DTP/NCI, 2004).
Several values for one entry are separate records, joined by “and”; a condition that tells them apart may be missing. Equal values may be shown once. Toxic doses and inconclusive results are not listed. No stated cut-off is given here; in the data, active means T/C of 150% or more; inactive means T/C below 125%.

Tested on: L1210 leukemia ip in BDF1 mice, survival T/C
Assay: NCI In Vivo Anticancer Drug Screen. Data for tumor model L1210 Leukemia (intraperitoneal) in B6D2F1 (BDF1) mice
Settings: endpoint: mean survival time, higher = longer survival
Method in brief: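 In this screen, tumor-bearing mice given compound are compared to those given vehicle, and their survival values are reported as a treated-to-control quotient.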

[1] = dose: 100.0 mg/kg/injection, schedule: Q01DX009 (ip), vehicle: Klucel (hydroxypropylcellulose) (HPC)
[2] = dose: 200.0 mg/kg/injection, schedule: Q01DX009 (ip), vehicle: Klucel (hydroxypropylcellulose) (HPC)
[3] = dose: 50.0 mg/kg/injection, schedule: Q01DX009 (ip), vehicle: Klucel (hydroxypropylcellulose) (HPC)
[4] = dose: 10.0 mg/kg/injection, schedule: Q01DX001 (ip), vehicle: saline
[5] = dose: 20.0 mg/kg/injection, schedule: Q01DX001 (ip), vehicle: saline
[6] = dose: 100.0 mg/kg/injection, schedule: Q04DX003 (ip), vehicle: saline with Tween-80
[7] = dose: 200.0 mg/kg/injection, schedule: Q04DX003 (ip), vehicle: saline with Tween-80
[8] = dose: 400.0 mg/kg/injection, schedule: Q04DX003 (ip), vehicle: saline with Tween-80
[9] = dose: 50.0 mg/kg/injection, schedule: Q01DX009 (ip), vehicle: saline
[10] = dose: 100.0 mg/kg/injection, schedule: Q01DX009 (ip), vehicle: saline
[11] = dose: 100.0 mg/kg/injection, schedule: Q04DX003 (ip), vehicle: saline
[12] = dose: 200.0 mg/kg/injection, schedule: Q04DX003 (ip), vehicle: saline

Measured: T/C

CC(=O)N1CN(C(C)=O)CN(C(C)=O)C1
inactive: [1] 95 % of control | dose: 100.0 mg/kg/injection, schedule: Q04DX002 (ip), vehicle: saline with Tween-80 91 % of control | [2] 92 % of control | dose: 200.0 mg/kg/injection, schedule: Q04DX002 (ip), vehicle: saline with Tween-80 102 % of control | dose: 400.0 mg/kg/injection, schedule: Q01DX009 (ip), vehicle: Klucel (hydroxypropylcellulose) (HPC) 97 % of control | dose: 400.0 mg/kg/injection, schedule: Q04DX002 (ip), vehicle: saline with Tween-80 95 % of control

COc1ccc2c(c1)CC[C@@H]1[C@@H]2CC[C@@]2(C)[C@H]1CC[C@@]2(O)C(F)=C(F)F
inactive: dose: 38.0 mg/kg/injection, schedule: Q01DX015 (sc), vehicle: steriod suspending solution 96 % of control | [3] 116 % of control | dose: 75.0 mg/kg/injection, schedule: Q01DX015 (sc), vehicle: steriod suspending solution 88 % of control | dose: 100.0 mg/kg/injection, schedule: Q01DX001 (sc), vehicle: steriod suspending solution 92 % of control | [1] 107 % of control | dose: 150.0 mg/kg/injection, schedule: Q01DX015 (sc), vehicle: steriod suspending solution 94 % of control | dose: 200.0 mg/kg/injection, schedule: Q01DX001 (sc), vehicle: steriod suspending solution 100 % of control | [2] 100 % of control | dose: 300.0 mg/kg/injection, schedule: Q01DX009 (ip), vehicle: Klucel (hydroxypropylcellulose) (HPC) 104 % of control | dose: 300.0 mg/kg/injection, schedule: Q01DX015 (sc), vehicle: steriod suspending solution 94 % of control | dose: 400.0 mg/kg/injection, schedule: Q01DX001 (sc), vehicle: steriod suspending solution 97 % of control | dose: 600.0 mg/kg/injection, schedule: Q01DX015 (sc), vehicle: steriod suspending solution 94 % of control

CCOP(=S)(OCC)OCCN(CC)CC
inactive: dose: 5.0 mg/kg/injection, schedule: Q01DX001 (ip), vehicle: saline 101 % of control | [4] 105 % of control | [5] 105 % of control

C/C=N\N=C(N)N
inactive: dose: 15.0 mg/kg/injection, schedule: Q01DX Z (ip), vehicle: saline 91 % of control | dose: 30.0 mg/kg/injection, schedule: Q01DX Z (ip), vehicle: saline 97 % of control | dose: 60.0 mg/kg/injection, schedule: Q01DX Z (ip), vehicle: saline 100 % of control | dose: 120.0 mg/kg/injection, schedule: Q01DX Z (ip), vehicle: saline 94 % of control | dose: 120.0 mg/kg/injection, schedule: Q01DX Z (oral), vehicle: other 95 % of control | dose: 240.0 mg/kg/injection, schedule: Q01DX Z (oral), vehicle: other 97 % of control | dose: 480.0 mg/kg/injection, schedule: Q01DX Z (oral), vehicle: other 102 % of control | dose: 960.0 mg/kg/injection, schedule: Q01DX Z (oral), vehicle: other 122 % of control

S=C(NP(=S)(NC(=S)OCCN1CC1)NC(=S)OCCN1CC1)OCCN1CC1
inactive: dose: 100.0 mg/kg/injection, schedule: Q01DX001 (ip), vehicle: carboxymethylcellulose (CMC) 93 % of control | dose: 200.0 mg/kg/injection, schedule: Q01DX001 (ip), vehicle: carboxymethylcellulose (CMC) 96 % of control

CC(C)(c1ccsc1)c1sccc1C(=O)O
inactive: [6] 100 % of control | [7] 87 % of control | [8] 87 % of control

C/C(=N\OC(=O)c1ccc([N+](=O)[O-])cc1)C(C)(C)C
inactive: dose: 100.0 mg/kg/injection, schedule: Q04DX002 (ip), vehicle: Klucel (hydroxypropylcellulose) (HPC) 88 % of control | dose: 200.0 mg/kg/injection, schedule: Q04DX002 (ip), vehicle: Klucel (hydroxypropylcellulose) (HPC) 100 % of control | dose: 400.0 mg/kg/injection, schedule: Q04DX002 (ip), vehicle: Klucel (hydroxypropylcellulose) (HPC) 96 % of control

O=C(CBr)CCS(=O)(=O)c1ccc(Cl)cc1
inactive: dose: 5.0 mg/kg/injection, schedule: Q01DX009 (ip), vehicle: saline with Tween-80 102 % of control | dose: 5.0 mg/kg/injection, schedule: Q04DX003 (ip), vehicle: saline with Tween-80 101 % of control | dose: 10.0 mg/kg/injection, schedule: Q01DX009 (ip), vehicle: saline with Tween-80 104 % of control | dose: 10.0 mg/kg/injection, schedule: Q04DX003 (ip), vehicle: saline with Tween-80 103 % of control | dose: 20.0 mg/kg/injection, schedule: Q01DX009 (ip), vehicle: saline with Tween-80 97 % of control | dose: 20.0 mg/kg/injection, schedule: Q04DX003 (ip), vehicle: saline with Tween-80 97 % of control

OC1C=CC2C3C=CC(C3)C12 (stereo not given)
inactive: [9] 102 % of control | dose: 50.0 mg/kg/injection, schedule: Q04DX003 (ip), vehicle: saline 102 % of control | [10] 104 % of control | [11] 103 % of control | dose: 200.0 mg/kg/injection, schedule: Q01DX009 (ip), vehicle: saline 95 % of control | [12] 94 % of control | dose: 400.0 mg/kg/injection, schedule: Q01DX009 (ip), vehicle: saline 95 % of control | dose: 400.0 mg/kg/injection, schedule: Q04DX003 (ip), vehicle: saline 91 % of control

NC(=O)NC1C(c2ccccc2)=NOC1C(N)=O (stereo not given)
inactive: dose: 25.0 mg/kg/injection, schedule: Q04DX003 (ip), vehicle: Klucel (hydroxypropylcellulose) (HPC) 94 % of control | [3] 88 % of control | dose: 50.0 mg/kg/injection, schedule: Q04DX003 (ip), vehicle: Klucel (hydroxypropylcellulose) (HPC) 105 % of control | [1] 93 % of control | dose: 100.0 mg/kg/injection, schedule: Q04DX003 (ip), vehicle: Klucel (hydroxypropylcellulose) (HPC) 96 % of control

COc1ccccc1NC1=C(NC(=O)Cc2ccccc2)C(=O)c2ccccc2C1=O
inactive: [6] 98 % of control | [7] 96 % of control | [8] 94 % of control

COc1ccc(OC)c(NC(=O)Sc2ccccc2O)c1
inactive: dose: 25.0 mg/kg/injection, schedule: Q01DX009 (ip), vehicle: Klucel (hydroxypropylcellulose) (HPC) 100 % of control | [3] 96 % of control | [1] 99 % of control and 89 % of control

NC(=O)NN=C1COC(c2ccccc2)OC1 (stereo not given)
inactive: [9] 98 % of control | [10] 89 % of control | [11] 101 % of control | [12] 93 % of control

CC(=O)c1cccc(NC(=O)N2CCN(c3ccccc3)CC2)c1
inactive: dose: 100.0 mg/kg/injection, schedule: Q01DX009 (ip), vehicle: saline with Tween-80 111 % of control | dose: 200.0 mg/kg/injection, schedule: Q01DX009 (ip), vehicle: saline with Tween-80 100 % of control

CCOC(=O)Nc1cc(N(C)CC(O)CN(C)c2ccccc2)c(N)c(N)n1 (stereo not given)
inactive: dose: 100.0 mg/kg/injection, schedule: Q01DX001 (ip), vehicle: Klucel (hydroxypropylcellulose) (HPC) 106 % of control | dose: 200.0 mg/kg/injection, schedule: Q01DX001 (ip), vehicle: Klucel (hydroxypropylcellulose) (HPC) 107 % of control | dose: 400.0 mg/kg/injection, schedule: Q01DX001 (ip), vehicle: Klucel (hydroxypropylcellulose) (HPC) 105 % of control

O=[N+]([O-])c1ccc([As+](c2ccccc2)(c2ccccc2)c2ccccc2)cc1
inactive: [4] 88 % of control | [5] 92 % of control

N#CCN1CCCCCC1
inactive: dose: 5.0 mg/kg/injection, schedule: Q01DX009 (ip), vehicle: Klucel (hydroxypropylcellulose) (HPC) 102 % of control | dose: 10.0 mg/kg/injection, schedule: Q01DX009 (ip), vehicle: Klucel (hydroxypropylcellulose) (HPC) 98 % of control | dose: 10.0 mg/kg/injection, schedule: Q04DX003 (ip), vehicle: Klucel (hydroxypropylcellulose) (HPC) 98 % of control | dose: 20.0 mg/kg/injection, schedule: Q04DX003 (ip), vehicle: Klucel (hydroxypropylcellulose) (HPC) 91 % of control

CCCC(C)(O)C(=O)O (stereo not given)
inactive: dose: 25.0 mg/kg/injection, schedule: Q04DX002 (ip), vehicle: saline 100 % of control | dose: 50.0 mg/kg/injection, schedule: Q04DX002 (ip), vehicle: saline 103 % of control | dose: 100.0 mg/kg/injection, schedule: Q04DX002 (ip), vehicle: saline 95 % of control

Cc1ccc(NP(=O)(Oc2c(F)c(F)c(F)c(F)c2F)N(CCCl)CCCl)cc1 (stereo not given)
inactive: dose: 62.5 mg/kg/injection, schedule: Q01DX001 (ip), vehicle: other 100 % of control | dose: 125.0 mg/kg/injection, schedule: Q01DX001 (ip), vehicle: other 112 % of control | dose: 250.0 mg/kg/injection, schedule: Q01DX001 (ip), vehicle: other 106 % of control | dose: 500.0 mg/kg/injection, schedule: Q01DX001 (ip), vehicle: other 108 % of control

CC(C)(C)C1CCC2(CC1)CO2 (stereo not given)
inactive: dose: 100.0 mg/kg/injection, schedule: Q01DX001 (ip), vehicle: saline 98 % of control
